We go through 5 molecules from PubChem BioAssay AID1259407 (Chemical Carcinogenesis Research Information System (CCRIS), 2018).

Calls of active or inactive are those of the source. No rule for the calls is given here.

This series has as its system CCRIS mutagenicity, Ames/micronucleus/aberration tests. The series is described as follows: CCRIS mutagenicity studies. The text has this: The CCRIS database contains chemical records with carcinogenicity, mutagenicity, tumor promotion, and tumor inhibition test results. It was developed by the National Cancer Institute (NCI). Data are derived from studies cited in primary journals, current awareness tools, NCI reports, and other sources. Test results have been reviewed by experts in carcinogenesis and mutagenesis.
CCRIS provides historical information from the years 1985 - 2011. It is no longer updated.
This is an archive assay for CCRIS mutagenicity studies.

The mark [1] stands for this setting: Test System: AMES SALMONELLA TYPHIMURIUM, Strain/Indicator: TA98, Metabolic Activation: NONE, Method: STANDARD PLATE.
Where [2] appears, read: Test System: AMES SALMONELLA TYPHIMURIUM, Strain/Indicator: TA100, Metabolic Activation: NONE, Method: STANDARD PLATE.
Where [3] appears, read: Test System: AMES SALMONELLA TYPHIMURIUM, Strain/Indicator: TA102, Metabolic Activation: NONE, Method: STANDARD PLATE.
[4] abbreviates: Test System: AMES SALMONELLA TYPHIMURIUM, Strain/Indicator: TA1537, Metabolic Activation: NONE, Method: STANDARD PLATE.
Setting [5] is: Test System: MOUSE LYMPHOMA, Strain/Indicator: L5178Y (TK+/TK-), Metabolic Activation: NONE, Method: SUSPENSION/PLATE.
The mark [6] stands for this setting: Test System: AMES SALMONELLA TYPHIMURIUM, Strain/Indicator: TA98, Metabolic Activation: RAT, LIVER, S-9, AROCLOR 1254, Method: STANDARD PLATE.
[7] abbreviates: Test System: AMES SALMONELLA TYPHIMURIUM, Strain/Indicator: TA100, Metabolic Activation: RAT, LIVER, S-9, AROCLOR 1254, Method: STANDARD PLATE.
Where [8] appears, read: Test System: AMES SALMONELLA TYPHIMURIUM, Strain/Indicator: TA1535, Metabolic Activation: NONE, Method: STANDARD PLATE.
The mark [9] stands for this setting: Test System: AMES SALMONELLA TYPHIMURIUM, Strain/Indicator: TA1535, Metabolic Activation: RAT, LIVER, S-9, AROCLOR 1254, Method: STANDARD PLATE.
The mark [10] stands for this setting: Test System: AMES SALMONELLA TYPHIMURIUM, Strain/Indicator: TA1537, Metabolic Activation: RAT, LIVER, S-9, AROCLOR 1254, Method: STANDARD PLATE.

In the case of `Nc1ccn([C@@H]2O[C@H](CO)[C@@H](O)C2O)c(=O)n1` (stereo partly specified), the mutagenic call was “active; positive” (End Point: IN VITRO MICRONUCLEUS, Test System: CHINESE HAMSTER V79 CELLS, Metabolic Activation: NONE); “active; positive” (End Point: IN VITRO MICRONUCLEUS, Test System: V79 CELLS, Metabolic Activation: NONE); “active; positive (structural changes) (effects significant without chm)” (End Point: In vitro chromosomal aberrations, Test System: Human lymphocytes, Metabolic Activation: None); “active; positive (p<0.001)” (End Point: In vitro micronucleus, Test System: Human lymphoblastoid TK6 cells, Metabolic Activation: None); “inactive; negative” under setting [1]; “inactive; negative” (Test System: AMES SALMONELLA TYPHIMURIUM, Strain/Indicator: TA98, Metabolic Activation: S-9, Method: STANDARD PLATE). Moreover, the mutagenic call is, setting by setting: under setting [2], “inactive; negative”; (Test System: AMES SALMONELLA TYPHIMURIUM, Strain/Indicator: TA100, Metabolic Activation: S-9, Method: STANDARD PLATE) “inactive; negative”; under setting [3], “inactive; negative”; under setting [4], “inactive; negative”; (Test System: AMES SALMONELLA TYPHIMURIUM, Strain/Indicator: TA1537, Metabolic Activation: S-9, Method: STANDARD PLATE) “inactive; negative”; (Test System: CHINESE HAMSTER V-79, Strain/Indicator: V-79 (HGPRT)/6-THIOGUANINE, Metabolic Activation: NONE) “inactive; negative”. Besides, the mutagenic call was “active; positive” (Test System: CHINESE HAMSTER V-79, Strain/Indicator: V-79/6-THIOGUANINE, Metabolic Activation: NONE, Method: SUSPENSION/PLATE); “inactive; negative” (Test System: CHINESE HAMSTER V-79, Strain/Indicator: V-79/6-THIOGUANINE, Metabolic Activation: RAT, LIVER, HEPATOCYTES, Method: SUSPENSION/PLATE); “active; positive” (Test System: CHINESE HAMSTER V-79, Strain/Indicator: V-79/8-AZAGUANINE, Metabolic Activation: NONE, Method: STANDARD PLATE); “active; positive” (Test System: E. COLI, Strain/Indicator: WP2 (HCR), Metabolic Activation: NONE, Method: STANDARD PLATE); “active; positive” (Test System: E. COLI, Strain/Indicator: WP2 (HCR), Metabolic Activation: S-9, Method: STANDARD PLATE); “active; positive” (Test System: MOUSE LYMPHOMA, Strain/Indicator: L5178Y (TK+/TK-), Metabolic Activation: NONE, Method: MICROWELL). Besides, the mutagenic call runs as follows: under setting [5], “active; positive”; (Test System: MOUSE LYMPHOMA, Strain/Indicator: L5178Y (TK+/TK-), Metabolic Activation: S-9, Method: MICROWELL) “active; positive”.

As for `O=C(Cl)OCc1ccccc1`, the mutagenic call by setting is: under setting [1], “inactive; negative”; under setting [6], “inactive; negative”; under setting [2], “inactive; negative”; under setting [7], “inactive; negative”; under setting [8], “inactive; negative”; under setting [9], “inactive; negative”. Moreover, the mutagenic call reads like this: under setting [4], “inactive; negative”; under setting [10], “inactive; negative”.

Consider `Cc1cccc(O)c1N`, for which the mutagenic call (Test System: AMES SALMONELLA TYPHIMURIUM, Strain/Indicator: TA98, Metabolic Activation: HAMSTER LIVER S-9, AROCLOR 1254, Method: STANDARD PLATE) is “inactive; negative”; the mutagenic call under setting [1] was “inactive; negative”; the mutagenic call (Test System: AMES SALMONELLA TYPHIMURIUM, Strain/Indicator: TA98, Metabolic Activation: RAT LIVER S-9, AROCLOR 1254, Method: STANDARD PLATE) was “inactive; negative”; the mutagenic call (Test System: AMES SALMONELLA TYPHIMURIUM, Strain/Indicator: TA100, Metabolic Activation: HAMSTER LIVER S-9, AROCLOR 1254, Method: STANDARD PLATE) is “inactive; negative”; the mutagenic call under setting [2] was “inactive; negative”; the mutagenic call (Test System: AMES SALMONELLA TYPHIMURIUM, Strain/Indicator: TA100, Metabolic Activation: RAT LIVER S-9, AROCLOR 1254, Method: STANDARD PLATE) is “inactive; negative”. For the same molecule, the mutagenic call (Test System: AMES SALMONELLA TYPHIMURIUM, Strain/Indicator: TA102, Metabolic Activation: HAMSTER LIVER S-9, AROCLOR 1254, Method: STANDARD PLATE) is “inactive; negative”; the mutagenic call under setting [3] is “inactive; negative”; the mutagenic call (Test System: AMES SALMONELLA TYPHIMURIUM, Strain/Indicator: TA102, Metabolic Activation: RAT LIVER S-9, AROCLOR 1254, Method: STANDARD PLATE) was “inactive; negative”; the mutagenic call (Test System: AMES SALMONELLA TYPHIMURIUM, Strain/Indicator: TA1535, Metabolic Activation: HAMSTER LIVER S-9, AROCLOR 1254, Method: STANDARD PLATE) is “inactive; negative”; the mutagenic call under setting [8] is “inactive; negative”; the mutagenic call (Test System: AMES SALMONELLA TYPHIMURIUM, Strain/Indicator: TA1535, Metabolic Activation: RAT LIVER S-9, AROCLOR 1254, Method: STANDARD PLATE) is “inactive; negative”. Besides, the mutagenic call is “inactive; negative” (Test System: AMES SALMONELLA TYPHIMURIUM, Strain/Indicator: TA1537, Metabolic Activation: HAMSTER LIVER S-9, AROCLOR 1254, Method: STANDARD PLATE); “inactive; negative” under setting [4]; “inactive; negative” (Test System: AMES SALMONELLA TYPHIMURIUM, Strain/Indicator: TA1537, Metabolic Activation: RAT LIVER S-9, AROCLOR 1254, Method: STANDARD PLATE); “active; positive. reevaluation of results: positive” under setting [5]; “active; positive. reevaluation of results: equivocal” (Test System: MOUSE LYMPHOMA, Strain/Indicator: L5178Y (TK+/TK-), Metabolic Activation: RAT, LIVER, S-9, AROCLOR 1254, Method: SUSPENSION/PLATE).

As to `Cc1ccc2cc3c(ccc4ccccc43)c3c2c1C(=O)C3`, the mutagenic call (Test System: CHINESE HAMSTER V-79, Strain/Indicator: V-79/8-AZAGUANINE, Metabolic Activation: RAT, LIVER, S-9, AROCLOR 1254, Method: STANDARD PLATE) is “active; positive”.

As for `C=CC(=O)OCCCCC`, the mutagenic call was “inactive; negative” under setting [1]; “inactive; negative” under setting [6]; “inactive; negative” (Test System: AMES SALMONELLA TYPHIMURIUM, Strain/Indicator: TA98, Metabolic Activation: RAT, LIVER, S-9, SODIUM PHENOBARBITAL, Method: STANDARD PLATE); “inactive; negative” under setting [2]; “inactive; negative” under setting [7]; “inactive; negative” (Test System: AMES SALMONELLA TYPHIMURIUM, Strain/Indicator: TA100, Metabolic Activation: RAT, LIVER, S-9, SODIUM PHENOBARBITAL, Method: STANDARD PLATE). Besides, the mutagenic call reads like this: under setting [8], “inactive; negative”; under setting [9], “inactive; negative”; (Test System: AMES SALMONELLA TYPHIMURIUM, Strain/Indicator: TA1535, Metabolic Activation: RAT, LIVER, S-9, SODIUM PHENOBARBITAL, Method: STANDARD PLATE) “inactive; negative”; under setting [4], “inactive; negative”; under setting [10], “inactive; negative”; (Test System: AMES SALMONELLA TYPHIMURIUM, Strain/Indicator: TA1537, Metabolic Activation: RAT, LIVER, S-9, SODIUM PHENOBARBITAL, Method: STANDARD PLATE) “inactive; negative”. In addition, the mutagenic call by setting is: (Test System: AMES SALMONELLA TYPHIMURIUM, Strain/Indicator: TA1538, Metabolic Activation: NONE, Method: STANDARD PLATE) “inactive; negative”; (Test System: AMES SALMONELLA TYPHIMURIUM, Strain/Indicator: TA1538, Metabolic Activation: RAT, LIVER, S-9, AROCLOR 1254, Method: STANDARD PLATE) “inactive; negative”; (Test System: AMES SALMONELLA TYPHIMURIUM, Strain/Indicator: TA1538, Metabolic Activation: RAT, LIVER, S-9, SODIUM PHENOBARBITAL, Method: STANDARD PLATE) “inactive; negative”.
